Assay results: PubChem BioAssay (NCI)
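Assay format: 96-well plates, 48-hour exposure. The concentration for 50% growth inhibition is given as GI50. TGI: total growth inhibition.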

Columns and labels:
Test in all cases: NCI-60 cell line screen, 48 h
[1] = tested on: 786-0 renal
[2] = tested on: A498 renal
[3] = tested on: A549 NSCLC
[4] = tested on: ACHN renal
[5] = tested on: BT-549 breast
[6] = tested on: CAKI-1 renal
[7] = tested on: COLO 205 colon
[8] = tested on: DU-145 prostate
[9] = tested on: EKVX NSCLC
[10] = tested on: HCC-2998 colon
[11] = tested on: HCT-116 colon
[12] = tested on: HCT-15 colon
[13] = tested on: HOP-62 NSCLC
[14] = tested on: HOP-92 NSCLC
[15] = tested on: HS 578T breast
[16] = tested on: HT29 colon
[17] = tested on: IGROV1 ovarian
[18] = tested on: K-562 leukemia
[19] = tested on: KM12 colon
[20] = tested on: LOX IMVI melanoma
[21] = tested on: M14 melanoma
[22] = tested on: MALME-3M melanoma
[23] = tested on: MCF7 breast
[24] = tested on: MDA-MB-231 breast
[25] = tested on: MDA-MB-435
[26] = tested on: MDA-N
[27] = tested on: MOLT-4 leukemia
[28] = tested on: NCI-H226 lung
[29] = tested on: NCI-H23 lung
[30] = tested on: NCI-H460 lung
[31] = tested on: NCI-H522 lung
[32] = tested on: NCI/ADR-RES ovarian
[33] = tested on: OVCAR-3 ovarian
[34] = tested on: OVCAR-4 ovarian
[35] = tested on: OVCAR-5 ovarian
[36] = tested on: OVCAR-8 ovarian
[37] = tested on: PC-3 prostate
[38] = tested on: RPMI-8226 leukemia
[39] = tested on: RXF 393 renal
[40] = tested on: SF-268 CNS
[41] = tested on: SF-295 CNS
[42] = tested on: SF-539 CNS
[43] = tested on: SK-MEL-2 melanoma
[44] = tested on: SK-MEL-5 melanoma
[45] = tested on: SK-OV-3 ovarian
[46] = tested on: SN12C renal
[47] = tested on: SNB-19 CNS
[48] = tested on: SNB-75 CNS
[49] = tested on: T-47D breast
[50] = tested on: TK-10 renal
[51] = tested on: U251 CNS
[52] = tested on: UACC-257 melanoma
[53] = tested on: UACC-62 melanoma
[54] = tested on: UO-31 renal
[55] = tested on: CCRF-CEM leukemia
[56] = tested on: HL-60(TB) leukemia
[57] = tested on: SK-MEL-28 melanoma
[58] = tested on: SR leukemia
[59] = tested on: SW-620 colon

Cc1c2c(c(C)n1-c1ccccc1)C(=O)N(CCN1CCN(c3cccc(C(F)(F)F)c3)CC1)C2=O
TGI [1]: > 100 µM
TGI [2]: > 100 µM
TGI [3]: > 100 µM
TGI [4]: > 100 µM
TGI [5]: > 100 µM
TGI [6]: > 100 µM
TGI [7]: > 100 µM
TGI [8]: > 100 µM
TGI [9]: > 100 µM
TGI [10]: > 100 µM
TGI [11]: > 100 µM
TGI [12]: > 100 µM
TGI [13]: > 100 µM
TGI [14]: > 100 µM
TGI [15]: > 100 µM
TGI [16]: > 100 µM
TGI [17]: > 100 µM
TGI [18]: > 100 µM
TGI [19]: > 100 µM
TGI [20]: > 100 µM
TGI [21]: > 100 µM
TGI [22]: > 100 µM
TGI [23]: > 100 µM
TGI [24]: > 100 µM
TGI [25]: > 100 µM
TGI [26]: > 100 µM
TGI [27]: > 100 µM
TGI [28]: > 100 µM
TGI [29]: > 100 µM
TGI [30]: > 100 µM
TGI [31]: > 100 µM
TGI [32]: > 100 µM
TGI [33]: > 100 µM
TGI [34]: > 100 µM
TGI [35]: > 100 µM
TGI [36]: > 100 µM
TGI [37]: > 100 µM
TGI [38]: > 100 µM
TGI [39]: > 100 µM
TGI [40]: > 100 µM
TGI [41]: > 100 µM
TGI [42]: > 100 µM
TGI [43]: > 100 µM
TGI [44]: 20.8 µM
TGI [45]: > 100 µM
TGI [46]: > 100 µM
TGI [47]: > 100 µM
TGI [48]: > 100 µM
TGI [49]: > 100 µM
TGI [50]: > 100 µM
TGI [51]: > 100 µM
TGI [52]: > 100 µM
TGI [53]: > 100 µM
TGI [54]: > 100 µM

Nc1ncc2c(n1)-c1ccccc1OC2N1CCCC1 (configuration not stated)
TGI [1]: > 100 µM
TGI [3]: > 100 µM
TGI [4]: > 100 µM
TGI [6]: > 100 µM
TGI [55]: > 100 µM
TGI [7]: > 100 µM
TGI [8]: > 100 µM
TGI [9]: > 100 µM
TGI [11]: > 100 µM
TGI [12]: > 100 µM
TGI [56]: 51.7 µM
TGI [13]: > 100 µM
TGI [14]: > 100 µM
TGI [15]: > 100 µM
TGI [16]: > 100 µM
TGI [17]: > 100 µM
TGI [18]: > 100 µM
TGI [19]: > 100 µM
TGI [20]: > 100 µM
TGI [21]: > 100 µM
TGI [22]: > 100 µM
TGI [23]: > 100 µM
TGI [24]: > 100 µM
TGI [25]: > 100 µM
TGI [26]: > 100 µM
TGI [27]: > 100 µM
TGI [28]: > 100 µM
TGI [29]: > 100 µM
TGI [30]: > 100 µM
TGI [31]: > 100 µM
TGI [32]: > 100 µM
TGI [33]: > 100 µM
TGI [34]: > 100 µM
TGI [35]: > 100 µM
TGI [36]: > 100 µM
TGI [37]: > 100 µM
TGI [38]: > 100 µM
TGI [39]: > 100 µM
TGI [40]: > 100 µM
TGI [41]: > 100 µM
TGI [42]: > 100 µM
TGI [43]: > 100 µM
TGI [57]: > 100 µM
TGI [44]: > 100 µM
TGI [45]: > 100 µM
TGI [46]: > 100 µM
TGI [47]: > 100 µM
TGI [48]: > 100 µM
TGI [58]: > 100 µM
TGI [59]: > 100 µM
TGI [50]: > 100 µM
TGI [51]: > 100 µM
TGI [52]: > 100 µM
TGI [53]: > 100 µM
TGI [54]: > 100 µM

O=c1[nH]c(-c2cccc(F)c2)cc2cc(F)ccc12
GI50 [1]: 2.87 µM
TGI [1]: > 100 µM
GI50 [2]: 0.244 µM
TGI [2]: 2.94 µM
GI50 [3]: 0.798 µM
TGI [3]: > 100 µM
GI50 [4]: 0.771 µM
TGI [4]: > 100 µM
GI50 [5]: 0.737 µM
TGI [5]: > 100 µM
GI50 [6]: 0.264 µM
TGI [6]: > 100 µM
GI50 [55]: 0.369 µM
TGI [55]: > 100 µM
GI50 [7]: 0.338 µM
TGI [7]: > 100 µM
GI50 [8]: 0.507 µM
TGI [8]: > 100 µM
GI50 [9]: 2.34 µM
TGI [9]: > 100 µM
GI50 [10]: 1.91 µM
TGI [10]: > 100 µM
GI50 [11]: 0.195 µM
TGI [11]: > 100 µM
GI50 [12]: 0.119 µM
TGI [12]: > 100 µM
GI50 [56]: 0.199 µM
TGI [56]: 0.684 µM
GI50 [13]: 0.495 µM
TGI [13]: > 100 µM
GI50 [14]: > 100 µM
TGI [14]: > 100 µM
GI50 [15]: 0.381 µM
TGI [15]: > 72.8 µM
GI50 [16]: 0.261 µM
TGI [16]: > 100 µM
GI50 [17]: 0.822 µM
TGI [17]: > 100 µM
GI50 [18]: 0.0698 µM
TGI [18]: > 100 µM
GI50 [19]: 0.307 µM
TGI [19]: > 100 µM
GI50 [20]: 0.613 µM
TGI [20]: > 100 µM
GI50 [21]: 0.16 µM
TGI [21]: > 100 µM
GI50 [22]: > 100 µM
TGI [22]: > 100 µM
GI50 [23]: 0.329 µM
TGI [23]: > 100 µM
GI50 [24]: 2.37 µM
TGI [24]: > 100 µM
GI50 [25]: 0.0279 µM
TGI [25]: 0.0797 µM
GI50 [27]: 0.568 µM
TGI [27]: > 100 µM
TGI [28]: > 100 µM
GI50 [29]: 1.61 µM
TGI [29]: > 100 µM
GI50 [30]: 0.389 µM
TGI [30]: > 100 µM
GI50 [31]: 0.334 µM
TGI [31]: > 100 µM
GI50 [32]: 0.268 µM
TGI [32]: > 100 µM
GI50 [33]: 0.314 µM
GI50 [34]: > 90.9 µM
TGI [34]: > 100 µM
GI50 [35]: 1.74 µM
TGI [35]: > 100 µM
GI50 [36]: 0.951 µM
TGI [36]: > 100 µM
GI50 [37]: 0.391 µM
TGI [37]: > 100 µM
GI50 [38]: 0.355 µM
TGI [38]: > 100 µM
GI50 [39]: 0.358 µM
GI50 [40]: > 82.9 µM
TGI [40]: > 100 µM
GI50 [41]: 0.305 µM
TGI [41]: > 100 µM
GI50 [42]: 0.272 µM
TGI [42]: 1.7 µM
GI50 [43]: 0.513 µM
TGI [43]: > 100 µM
GI50 [57]: 7.5 µM
TGI [57]: > 100 µM
GI50 [44]: 0.334 µM
TGI [44]: > 100 µM
GI50 [45]: 0.616 µM
TGI [45]: > 100 µM
GI50 [46]: 1.31 µM
TGI [46]: > 100 µM
GI50 [47]: 0.664 µM
TGI [47]: > 100 µM
GI50 [48]: 0.211 µM
TGI [48]: > 100 µM
GI50 [58]: 0.0712 µM
TGI [58]: > 100 µM
GI50 [59]: 0.174 µM
TGI [59]: > 100 µM
GI50 [49]: > 100 µM
TGI [49]: > 100 µM
GI50 [50]: > 50 µM
TGI [50]: > 100 µM
GI50 [51]: 0.47 µM
TGI [51]: > 100 µM
GI50 [52]: > 100 µM
TGI [52]: > 100 µM
GI50 [53]: 0.571 µM
TGI [53]: > 100 µM
GI50 [54]: 1.65 µM
TGI [54]: > 100 µM
